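Five compound concentrations were applied to cells in 96-well plates for 48 hours; endpoints were derived by simple linear interpolation of the resulting dose-response curve. GI50 is the concentration that inhibits growth by half.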 Active and inactive are the calls of the source. Cut-off read from the data, not from the text of the source: active = GI50 up to about 1.1 µM and inactive = higher.
Columns and labels:
Experiment in all cases: growth of human tumour cells (NCI), 48 h
A498 = test system: A498
CAKI-1 = test system: CAKI-1
HCT-15 = test system: HCT-15
HOP-92 = test system: HOP-92
K562 = test system: K562
MOLT-4 = test system: MOLT-4
Malme-3M = test system: Malme-3M
NCI-H23 = test system: NCI-H23
SF-268 = test system: SF-268
SK-MEL-28 = test system: SK-MEL-28
SN12C = test system: SN12C
SNB-19 = test system: SNB-19
U-251 = test system: U-251
UACC-257 = test system: UACC-257
UO-31 = test system: UO-31
RXF 393 = test system: RXF 393
LOX IMVI = test system: LOX IMVI

| SMILES | GI50 (A498) | GI50 (CAKI-1) | GI50 (HCT-15) [µM] | GI50 (HOP-92) | GI50 (K562) | GI50 (MOLT-4) | GI50 (Malme-3M) | GI50 (NCI-H23) | GI50 (SF-268) | GI50 (SK-MEL-28) | GI50 (SN12C) | GI50 (SNB-19) | GI50 (U-251) | GI50 (UACC-257) | GI50 (UO-31) | GI50 (RXF 393) | GI50 (LOX IMVI) |
| --- | --- | --- | --- | --- | --- | --- | --- | --- | --- | --- | --- | --- | --- | --- | --- | --- | --- |
| O=C1C2=C(c3ccccc31)C(c1cccc(Cl)c1)NC(S)=N2 (stereo not drawn) | > 100 µM (inactive) | 75.2 µM (inactive) | > 100 | > 100 µM (inactive) | > 100 µM (inactive) | 91.8 µM (inactive) | > 100 µM (inactive) | > 100 µM (inactive) | > 100 µM (inactive) | > 100 µM (inactive) | > 100 µM (inactive) | > 100 µM (inactive) | > 100 µM (inactive) | > 100 µM (inactive) | 46.2 µM (inactive) | – | – |
| CC(C(=O)Oc1ccc2ccccc2c1-c1c(O)ccc2ccccc12)c1ccccc1 (stereo not drawn) | 15.9 µM (inactive) | 11.5 µM (inactive) | 12.5 | 10.3 µM (inactive) | 15 µM (inactive) | 7.67 µM (inactive) | 17.4 µM (inactive) | 14.4 µM (inactive) | > 10 µM (inactive) | 15.4 µM (inactive) | 14.7 µM (inactive) | 14.7 µM (inactive) | 15.1 µM (inactive) | 13.7 µM (inactive) | 1.37 µM (inactive) | 11 µM (inactive) | – |
| CC1=C[C@H]2C[C@@]3(C)O[C@@H]([C@]4(C)CC[C@H]([C@@H](C)C(=O)O)OO4)CC3C(C)(C)[C@H]2CC1 (stereo partly drawn) | – | 1.49 µM (inactive) | – | 0.078 µM (active) | – | – | 0.849 µM (active) | 1.91 µM (inactive) | 2.17 µM (inactive) | 1.56 µM (inactive) | 1.39 µM (inactive) | 1.79 µM (inactive) | 1.65 µM (inactive) | 1.68 µM (inactive) | 1.2 µM (inactive) | 1.25 µM (inactive) | 0.161 µM (active) |
| NC(=S)N/N=C(/CC(=O)c1ccc([N+](=O)[O-])cc1)C(=O)Nc1ncc([N+](=O)[O-])s1 | – | – | – | > 100 µM (inactive) | – | 30.7 µM (inactive) | > 100 µM (inactive) | > 100 µM (inactive) | > 100 µM (inactive) | > 100 µM (inactive) | > 100 µM (inactive) | > 100 µM (inactive) | > 100 µM (inactive) | > 100 µM (inactive) | > 100 µM (inactive) | > 100 µM (inactive) | 61.7 µM (inactive) |
| CC(C)N(C(=O)C1(C)CC1)C(C)C | > 100 µM (inactive) | > 100 µM (inactive) | > 100 | > 100 µM (inactive) | > 100 µM (inactive) | > 100 µM (inactive) | > 100 µM (inactive) | > 100 µM (inactive) | > 100 µM (inactive) | > 100 µM (inactive) | > 100 µM (inactive) | > 100 µM (inactive) | > 100 µM (inactive) | > 100 µM (inactive) | > 100 µM (inactive) | > 100 µM (inactive) | – |
| CC1=C(C(=O)Nc2ccc([N+](=O)[O-])cc2)C(c2ccco2)C(C(=O)Nc2ccc([N+](=O)[O-])cc2)=C(C)N1 | 10.5 µM (inactive) | 20.3 µM (inactive) | – | 14.8 µM (inactive) | 6.37 µM (inactive) | 4.33 µM (inactive) | 12.4 µM (inactive) | 13.4 µM (inactive) | 21.3 µM (inactive) | 28.2 µM (inactive) | 16.3 µM (inactive) | 27.1 µM (inactive) | 21.9 µM (inactive) | 18.5 µM (inactive) | 7.24 µM (inactive) | 4.61 µM (inactive) | 19.6 µM (inactive) |
| O=C(O)c1cc(=O)c2c([nH]c3ccccc32)s1 | – | > 100 µM (inactive) | > 100 | > 100 µM (inactive) | > 100 µM (inactive) | > 100 µM (inactive) | > 100 µM (inactive) | > 100 µM (inactive) | > 100 µM (inactive) | > 100 µM (inactive) | > 100 µM (inactive) | > 100 µM (inactive) | – | > 100 µM (inactive) | > 100 µM (inactive) | > 100 µM (inactive) | – |
